Measured values taken from PMC9563442, “Purification, Characterization, and Immobilization of a Novel Protease-Resistant α-Galactosidase from Oudemansiella radicata and Its Application in Degradation of Raffinose Family Oligosaccharides from Soymilk” (Foods, 2022).
Values belong to the molecule of their own block, whether it stands above or below them.

Assays:
Type in all cases: biochemical, Hymenopellis radicata
[1] = test system: T1, ORG (O. radicata α-galactosidase); test: p-nitrophenol release, absorbance at […] nm, Michaelis-Menten plot; conditions: free enzyme; pNPG 0.5-4 mM, NaAc-HAc pH 4.6, 40 °C
T1 construct: native, purified from commercial dry fruiting bodies; 74 kDa by gel filtration, SDS-PAGE bands 50 and 24 kDa

[2] = molecular target: T1, ORG (O. radicata α-galactosidase); test: pNPG hydrolysis, absorbance at […] nm, Dixon plot; conditions: mixed-type inhibition; pNPG 1.5-3 mM as substrate, NaAc-HAc pH 4.6, 40 °C
[3] = test system: T1, ORG (O. radicata α-galactosidase); test: reducing sugar release (DNS method), Michaelis-Menten plot; conditions: free enzyme, 50 °C
Text: reducing sugar release (DNS method), Michaelis-Menten plot on ORG (O. radicata α-galactosidase)

Structure (SMILES): O=[N+]([O-])c1ccc(O[C@H]2O[C@H](CO)[C@H](O)[C@H](O)[C@H]2O)cc1 [4-nitrophenyl-α-D-galactopyranoside]
- Km [1]: 0.58 mM

Structure (SMILES): OC[C@H]1OC(O)[C@H](O)[C@@H](O)[C@H]1O (some centres unmarked) [galactose]
- Ki [2]: 5.94 mM

Structure (SMILES): OC[C@H]1O[C@H](OC[C@H]2OC(O)[C@H](O)[C@@H](O)[C@@H]2O)[C@H](O)[C@@H](O)[C@H]1O (some centres unmarked) [melibiose]
- Ki [2]: 1.86 mM

Now from value to molecule:

- Km ([3]; stachyose 2-40 mM, read-out: Stachyose / Km): 19 mM
Structure (SMILES): OC[C@H]1O[C@H](OC[C@H]2O[C@H](OC[C@H]3O[C@H](O[C@]4(CO)O[C@H](CO)[C@@H](O)[C@@H]4O)[C@H](O)[C@@H](O)[C@@H]3O)[C@H](O)[C@@H](O)[C@H]2O)[C@H](O)[C@@H](O)[C@H]1O [stachyose]

- Km ([3]; raffinose 2-40 mM, read-out: Raffinose / Km): 16.5 mM
Structure (SMILES): OC[C@H]1O[C@H](OC[C@H]2O[C@H](O[C@]3(CO)O[C@H](CO)[C@@H](O)[C@@H]3O)[C@H](O)[C@@H](O)[C@@H]2O)[C@H](O)[C@@H](O)[C@H]1O [raffinose]
